According to article PMC9234964, “Design, Synthesis, and Biological Evaluation of a Novel Series of 4-Guanidinobenzoate Derivatives as Enteropeptidase Inhibitors with Low Systemic Exposure for the Treatment of Obesity” (Journal of Medicinal Chemistry, 2022):
Read-outs that look alike come from different tables or passages of the source.

Assays:
human enteropeptidase [1] = target: T1, human enteropeptidase (Homo sapiens, UniProt P98073); test: Human enteropeptidase enzyme assay; format: biochemical; settings: for IC50: substrate and compound at room temperature, 95% confidence intervals in parentheses
T1 construct: purchased ITSI-Biosciences, LLC #REN-260
Experimental: Human recombinant enteropeptidase (#REN-260, ITSI-Biosciences, LLC) was diluted with an assay buffer (50 mM tricine (pH 8.0), 0.01(w/v)% Tween 20, 10 mM CaCl2) to prepare a 24 mU/mL enzyme solution. Subsequently, 5FAM–Abu–[…]CPQ2)–Lys–Lys–NH2 (purity: 97.2%, CPC Scientific, Inc.) was diluted with an assay buffer to prepare a 2.1 μM substrate solution. Compounds were dissolved in DMSO and then diluted in the assay buffer. The compound solution (5 μL/well) and the substrate solution (5 μL/well) were added to a 384-well black plate (#784076, Greiner Bio-One) and mixed. Then, the enzyme solution (5 μL/well) was added to the plate and mixed to start the reaction. The fluorescence intensity was measured at an excitation wavelength of 485 nm and a fluorescence wavelength of 535 nm using a fluorescence plate reader EnVision (PerkinElmer Inc.). Also, the same reaction as above was performed except that the test compound was not added (test compound non-supplemented group). In addition, the same reaction as above was performed except that neither the test compound nor the enzyme was added (control group).
(§1) Inhibition rate (%) = (1 – (fluorescence intensity of the test compound supplemented group – fluorescence intensity of the control group)/(fluorescence intensity of the test compound non-supplemented group – fluorescence intensity of the control group)) × 100.

[2] = Aqueous stability at pH 1.2/6.8; format: physicochemical; settings: 24 h; for stability at pH 1.2 (% decomposed): pH 1.2, 37 °C; for stability at pH 6.8 (% decomposed): pH 6.8, 37 °C
Experimental: Sample solutions in pH 1.2/6.8 media (first/second fluids for the disintegration test in the Japanese Pharmacopoeia 17th edition, including 10% dimethyl sulfoxide if needed, 10 μg/mL) were prepared for the compounds and incubated at 37 °C. The sample solutions were measured initially and at 24 h using HPLC, and peak analysis was conducted. Residual contents (%) of the compounds in pH 1.2/6.8 media at 37 °C after 24 h of incubation of the initial solutions were calculated using the peak areas.

[3] = system: Human Multi-drug Resistance 1 (MDR-1) Expressing Cells; test: Membrane permeability with MDR1-expressing cells (A to B); format: in vitro ADME; settings: apical to basolateral, 10 μmol/L, 2 h
Experimental: The transcellular transport study was performed as reported previously.[40] In brief, the cells were grown in a HTS transwell 96 well permeable support (pore size 0.4 μm, 0.143 cm^2 surface area) with a polyethylene terephthalate membrane (Corning Life Sciences, Lowell, MA, USA) at a density of 1.125 × 10^5 cells/well. The cells were preincubated with M199 at 37 °C for 30 min. Subsequently, transcellular transport was initiated by the addition of M199 to apical compartments containing 10 μmol/L test compounds and terminated by the removal of each assay plate after 2 h. The aliquots in the opposite compartments were subjected to be measured for compound concentration by LC–MS/MS. Permeability was calculated using the permeated compound concentration.

[4] = Plasma exposure of 2a in mice (oral and subcutaneous); format: in vivo; settings: male, mouse, read-out: AUC0-24h
High-Fat-Diet-Fed Mice = test: Increase in fecal protein output in high-fat-diet-fed mice; format: in vivo, mouse; settings: for fecal protein output (fold of 2a): oral
Experimental: A high-fat diet (HFD)-fed mouse (D12079B diet, male, 14–21 weeks old) was used for the in vivo assay. For compound screening, mice were orally administered with either the test compound (10 mg/kg) or 0.5% methylcellulose (MC) as a vehicle control. For the assessment of efficacy by systemic exposure of the compound, mice were subcutaneously administered with compound 2a (10 mg/kg) or saline as a vehicle control and compared with those administered oral treatment (60 mg/kg). Doses were selected to achieve equivalent systemic exposure as the area under the curve over 24 h based on pharmacokinetic data of both oral and subcutaneous administration. Whole feces were collected overnight, and the fecal protein output was evaluated as described previously.[33]

[5] = PAMPA (parallel artificial membrane permeability assay); format: in vitro ADME; settings: PAMPA
[6] = Kinetic aqueous solubility at pH 1.2/6.8; format: physicochemical; settings: aqueous medium, kinetic from dmso stock
human enteropeptidase [7] = target: T1, human enteropeptidase; test: Dissociation assay (recovery of active enzyme after rapid dilution); format: biochemical; settings: rapid dilution after 2 h preincubation of compound and enzyme
Text: Although not all reaction constants for 1c could be identified, the in vitro IC50 value could be used as an indicator of the combination of k1, k–1, and k2. In this case, the IC50 value of a compound is derived from its affinity for enteropeptidase (k1 and k–1) and its reactivity against enteropeptidase (k2). […] As the affinity of a compound for enteropeptidase is expected to largely contribute to the IC50 value based on initial velocities (IC50(initial)) relative to the IC50 value based on the steady state (IC50(app)), we performed chemical modifications based on IC50(initial). […] Because T1/2 can be an indicator of k3, we focused on compounds with low IC50(initial) values and long T1/2 values.
For dissociation assay, compounds were dissolved in DMSO and then diluted in assay buffer (50 mM Tricine pH 8.0, 0.01(w/v)% Tween20, 10 mM CaCl2). 10 μL of compound solution was added in 96-well plate (corning), and then, 10 μL of 100 mU/mL human recombinant enteropeptidase (ITSI-Biosciences) solution was added into the plate and incubated at room temperature for 2 h. […] After incubation, 2 μL of the compound-enzyme mixture was transferred to a 96-well black plate (Corning) and 200 μL of substrate solution (3 μM 5FAM–Abu–[…]CPQ2)–Lys–Lys–NH2 (CPC Scientific)) was added into the well. By rapid dilution, the inhibitor concentration went to 10-fold below the IC50 from 10-fold above the IC50. The fluorescence was measured each 2 min at excitation wavelength 485 nm and emission wavelength 535 nm by EnVision (Perkin Elmer). The progress curves were fitted to following equation to determine the values for koff and dissociation half-life T1/2 according to the following equations. [drawing 4] 1 where t is time and F is fluorescence from initial rate vo to steady state rate vs. [drawing 5] 2

Pharmacokinetics in rats = format: in vivo, rat
Experimental: […] After administration, blood samples were collected and centrifuged to obtain plasma specimens. The compound concentrations in the plasma were measured using LC–MS/MS.

rat enteropeptidase = rat enteropeptidase (Rattus norvegicus, UniProt A0ABK0LTS6); test: Rat enteropeptidase enzyme assay; format: biochemical
Experimental: The rat enteropeptidase catalytic subunit (aa 818-1057, GenBank accession no. XM_017597944) was cloned into the BglII-NotI site of the pET32a vector (Millipore). The active rat enteropeptidase catalytic subunit was obtained as described previously.[36] The rat recombinant enteropeptidase was diluted with an assay buffer (50 mM Tricine (pH 8.0), 0.01(w/v)% Tween 20, 10 mM CaCl2) to prepare a 2.4 ng/mL enzyme solution. Subsequently, 5FAM–Abu–[…]CPQ2)–Lys–Lys–NH2 (purity: 97.2%, CPC Scientific, Inc.) was diluted with an assay buffer to prepare a 5.4 μM substrate solution. Compounds were dissolved in DMSO and then diluted in the assay buffer. The compound solution (5 μL/well) and the substrate solution (5 μL/well) were added to a 384-well black plate (#784076, Greiner Bio-One) and mixed. Then, the enzyme solution (5 μL/well) was added to the plate and mixed to start the reaction. The fluorescence intensity was measured at an excitation wavelength of 485 nm and a fluorescence wavelength of 535 nm using a fluorescence plate reader EnVision (PerkinElmer Inc.). […]
as §1

DIO rats = test: Anti-obesity effects in male DIO rats (repeated dosing, 4 weeks); format: in vivo, rat; settings: oral, 6b 1, 3 and 10 mg/kg; for body weight change / food intake: (S)-5b 10 mg/kg; for fecal protein output: day 28, (S)-5b 10 mg/kg
Experimental: Six-week-old male DIO F344/Jcl rats were obtained from CLEA Japan (Tokyo, Japan) and fed with a HFD D12451 (45 kcal % fat, 20 kcal % protein, and 35 kcal % carbohydrate; Research Diets, Inc.). The study involved six groups of rats (n = 6): vehicle (0.5% MC), 6b (1, 3, and 10 mg/kg), (S)-5b (SCO-792) (10 mg/kg), and sibutramine (1 mg/kg). […] were orally administered with either the vehicle or compounds starting at 36 weeks of age for 4 weeks. The body weight was monitored every 1–4 days for 4 weeks. The change in body weight is presented as a percentage of the initial body weight. Feces were collected on day 28 and evaluated for pharmacodynamic markers.

DIO mice = settings: cited from earlier work
enteropeptidase = system: enteropeptidase; parameters: method as in PMID 33033171; settings: cited from earlier work
[8] = 6 min incubation of enzyme, read-out: Human enteropeptidase IC50(initial)
[9] = 120 min incubation of enzyme, read-out: Human enteropeptidase IC50(app)

T1 sequence (P98073 whole entry): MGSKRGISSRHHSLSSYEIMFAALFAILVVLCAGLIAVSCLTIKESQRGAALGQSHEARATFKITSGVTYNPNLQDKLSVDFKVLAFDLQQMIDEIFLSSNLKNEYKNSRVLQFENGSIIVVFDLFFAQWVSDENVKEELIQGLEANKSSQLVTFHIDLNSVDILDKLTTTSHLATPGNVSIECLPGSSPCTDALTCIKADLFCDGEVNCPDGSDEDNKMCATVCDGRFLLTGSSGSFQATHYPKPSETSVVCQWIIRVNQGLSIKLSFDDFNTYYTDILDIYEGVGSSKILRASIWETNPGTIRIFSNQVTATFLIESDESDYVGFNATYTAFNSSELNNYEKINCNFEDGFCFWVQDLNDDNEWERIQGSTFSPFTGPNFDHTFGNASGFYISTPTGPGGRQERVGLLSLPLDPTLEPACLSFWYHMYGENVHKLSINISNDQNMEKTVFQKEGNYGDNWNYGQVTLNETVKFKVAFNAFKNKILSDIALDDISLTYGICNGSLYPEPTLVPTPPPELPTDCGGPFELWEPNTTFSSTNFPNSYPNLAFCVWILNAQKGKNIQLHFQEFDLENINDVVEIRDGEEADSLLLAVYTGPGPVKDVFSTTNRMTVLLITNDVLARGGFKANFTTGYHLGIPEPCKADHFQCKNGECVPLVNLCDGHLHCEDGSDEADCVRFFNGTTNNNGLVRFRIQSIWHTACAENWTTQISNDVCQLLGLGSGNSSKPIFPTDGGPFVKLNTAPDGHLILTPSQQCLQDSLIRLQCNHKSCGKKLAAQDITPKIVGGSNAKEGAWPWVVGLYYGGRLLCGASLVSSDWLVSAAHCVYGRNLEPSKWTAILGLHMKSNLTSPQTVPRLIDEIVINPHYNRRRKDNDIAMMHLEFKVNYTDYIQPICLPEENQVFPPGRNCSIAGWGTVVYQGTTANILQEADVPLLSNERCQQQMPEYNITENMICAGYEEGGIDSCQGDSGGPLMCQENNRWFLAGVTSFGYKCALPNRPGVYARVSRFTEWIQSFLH
Chain of rat enteropeptidase (A0ABK0LTS6 829-1068): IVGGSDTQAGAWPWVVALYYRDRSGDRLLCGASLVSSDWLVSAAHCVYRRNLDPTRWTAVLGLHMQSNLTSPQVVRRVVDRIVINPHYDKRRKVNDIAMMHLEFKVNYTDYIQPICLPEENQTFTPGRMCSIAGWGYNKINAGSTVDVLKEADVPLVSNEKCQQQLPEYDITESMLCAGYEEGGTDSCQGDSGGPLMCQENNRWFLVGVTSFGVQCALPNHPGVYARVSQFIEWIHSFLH

Compound | IC50 (human enteropeptidase [1]; [8]) [nM] | IC50 (human enteropeptidase [1]; [9]) [nM] | stability at pH 1.2 (% decomposed) [2] [% decomposed] | stability at pH 6.8 (% decomposed) [2] [% decomposed] | MDR1 (A to B) [3] [nm/s] | fecal protein output (fold of 2a) (High-Fat-Diet-Fed Mice; 10 mg/kg) | body weight change (DIO rats) | food intake (DIO rats) | fecal protein output (DIO rats) | body weight (DIO mice) | further results
Cl.N=C(N)Nc1ccc(C(=O)Oc2ccc(CC(=O)N[C@@H](CC(=O)O)C(=O)O)cc2)cc1 [2a, N-({4-[(4-Carbamimidamidobenzoyl)oxy]phenyl}acetyl)-L-aspartic Acid Hydrochloride] | 94 | 5.9 | 2.5 | 5.0 | 0 | (1.00) fold of 2a | – | – | – | – | fold enhancement in IC50(initial) relative to 1c (human enteropeptidase [1]; 6 min, glycine replaced with aspartic acid): five-fold; AUC(0-t) at 24 h ([4]; oral, 60 mg/kg): 9820 ± 3740 ng·h/mL; AUC(0-t) at 24 h ([4]; sc, subcutaneous, 10 mg/kg): 16000 ± 2640 ng·h/mL; fecal protein content vs vehicle (High-Fat-Diet-Fed Mice; oral administration, 60 mg/kg): significant increase; fecal protein levels vs vehicle (High-Fat-Diet-Fed Mice; subcutaneous administration, 10 mg/kg): did not increase; Papp ([5]; pH 7.4, read-out: PAMPA at pH 7.4): 0.2 ×10⁻⁶ cm/s; Papp ([5]; pH 5.0, read-out: PAMPA at pH 5.0): 0.1 ×10⁻⁶ cm/s; solubility kinetic ([6]; pH 1.2, simulated gastric fluid, read-out: Kinetic aqueous solubility at pH 1.2): 76 µg/mL; solubility kinetic ([6]; pH 6.8, aqueous buffer, read-out: Kinetic aqueous solubility at pH 6.8): > 97 µg/mL; T1/2, half-time of dissociation from human enteropeptidase (human enteropeptidase [7]): >120 min
N=C(N)Nc1ccc(C(=O)Oc2cccc(C3=NO[C@](CC(=O)O)(C(=O)O)C3)c2)cc1 [6b, (5R)-3-{3-[(4-Carbamimidamidobenzoyl)oxy]phenyl}-5-(carboxymethyl)-4,5-dihydro-1,2-oxazole-5-carboxylic Acid] | 20 | 1.2 | 1.1 | 7.3 | 0 | 1.29 fold of 2a | potent body weight loss in a dose-dependent manner | significant reduction | significant increase | – | PK in rats, plasma concentration (Pharmacokinetics in rats; 1 mg/kg p.o., below the lower limit of quantitation): < 1 ng/mL; IC50 (rat enteropeptidase; 120 min, supplement csv, unit inferred, read-out: rat enteropeptidase IC50 (120 min)): 1.5 nM; melting point: 199 °C (dec.)
N=C(N)Nc1ccc(C(=O)Oc2ccc3c(c2)OC[C@H]3CC(=O)N[C@@H](CC(=O)O)C(=O)O)cc1.O [(S)-5b, N-({(3S)-6-[(4-Carbamimidamidobenzoyl)oxy]-2,3-dihydro-1-benzofuran-3-yl}acetyl)-L-aspartic Acid Hydrate] | 68 | – | 0.2 | 4.4 | 0 | 1.28 fold of 2a | body weight loss | reduction | significant elevation | potent body weight reduction | PK in rats BA (Pharmacokinetics in rats; 10 mg/kg p.o. and 0.2 mg/kg i.v.): 0.4%; IC50 (rat enteropeptidase): 4.6 nM
CN(C)C(=O)COC(=O)Cc1ccc(OC(=O)c2ccc(NC(=N)N)cc2)cc1 [camostat] | – | – | – | – | – | – | – | – | – | induced body weight loss | enteropeptidase activity (enteropeptidase): inhibited enteropeptidase activity
